Assays:
[1] = Case reports: patients with depression given ketamine with or without an anxiolytic; type: in vivo, human
[2] = Case report: patient with depression and suicidal ideation given ketamine with or without intranasal oxytocin; type: in vivo, human
[3] = Case report: patient with muscle spasm associated with cerebral palsy given intramuscular ketamine; type: in vivo, human; details: intramuscular ketamine 0.2-1.2 mg/kg
[4] = cited from earlier work
[5] = ketamine infusions, benzodiazepine users, Albott et al., 2017

## Cc1nnc2n1-c1ccc(Cl)cc1C(c1ccccc1)=NC2 [alprazolam]
[1]; same patient, 0.5 mg alprazolam before the same dose of ketamine
  improvement in depression: significant improvement in depression

## CNC1(c2ccccc2Cl)CCCCC1=O (centres unmarked) [ketamine]
[1]; patient with depression, ketamine alone
  therapeutic benefit: did not benefit therapeutically
[1]; same patient, ketamine without lorazepam, compared to times with lorazepam
  antidepressant effect: reduced antidepressant effect
[2]; ketamine alone, several times, intramuscular 0.25-1.0 mg/kg
  improvement in depression or suicidal ideation: did not experience improvement
[3]
  muscle spasm after the treatment: reduction in their muscle spasm
[4]; concomitant use of benzodiazepines, Andrashko et al., 2020
  antidepressant effect of ketamine: dampened the antidepressant effect
[4]; [5]
  time to antidepressant response: significantly longer
  time to depression relapse: significantly shorter
[4]; one patient, after their benzodiazepine was withdrawn, Ford et al. (2015)
  antidepressant response to ketamine infusions: more robust

## O=C1Nc2ccc(Cl)cc2C(c2ccccc2Cl)=NC1O (centres unmarked) [lorazepam]
[1]; patient with depression, 1 mg lorazepam prior to ketamine, several treatments
  antidepressant effect: experienced an antidepressant effect

## CC[C@H](C)[C@@H]1NC(=O)[C@H](Cc2ccc(O)cc2)NC(=O)[C@@H](N)CSSC[C@@H](C(=O)N2CCC[C@H]2C(=O)N[C@@H](CC(C)C)C(=O)NCC(N)=O)NC(=O)[C@H](CC(N)=O)NC(=O)[C@H](CCC(N)=O)NC1=O [oxytocin]
[2]; same patient, oxytocin 40 IU intranasally 30 minutes before ketamine in same dose range
  severity of depression and suicidal ideation: reduced severity of depression and suicidal ideation
